Assay results published in paper PMC8248988, “A signal capture and proofreading mechanism for the KDEL-receptor explains selectivity and dynamic range in ER retrieval” (eLife, 2021).

Experiments:
Type in all cases: cell-based
Conditions in all cases: COS-7 cells
[1] = target: T1, human KDELR1 N54K (Homo sapiens, UniProt P24390, N54K); assay: ER retrieval assay, KDELR1 N54K-GFP
T1 construct: expressed in transfected cells; host or cells: COS-7
Description: (§1) To create KDELR1-GFP and KDELR2-GFP, the reading frames for Homo sapiens KDELR1 (Uniprot: P24390) and KDELR2 (Uniprot: P33947) were cloned into the pEF5/FRT low level mammalian expression vector with a C-terminal 20 amino acid linker made up of 5 copies of Gly-Ser-Ser-Ser followed by GFP. Specific point mutations were introduced using the Quickchange protocol (Stratagene) and are described in the key resources table and figures. To create the mScarlet-KDEL^sec ligand construct, mScarlet with an N-terminal hGH signal peptide and the 16 C-terminal residues of human BiP at its C-terminus, containing the KDEL signal, was cloned into the pcDNA3.1 vector. […] The Golgi marker protein TGN46 was detected by antibody (sheep anti-TGN46 AHP500G; AbD Serotec) and an Alexa 647 conjugated secondary anti-sheep secondary (A-21448, Invitrogen). In Figure 1d and e, endogenous KDELR was detected by antibody (mouse anti-KDELR ADI-VAA-PT048; Enzo Life Sciences) and Alexa 488 conjugated anti-mouse secondary antibody (A-21202, Invitrogen). For retrieval assays in other figures, KDELR-GFP fusion proteins were directly detected by fluorescence. The mScarlet-xDEL fusion proteins were directly detected by fluorescence. […] The fraction of KDEL receptor in the Golgi apparatus was calculated by dividing the Golgi signal by the total cell signal. […]

[2] = target: T2, human KDELR1 N54R (Homo sapiens, UniProt P24390, N54R); assay: ER retrieval assay, KDELR1 N54R-GFP
T2 construct: expressed in transfected cells; host or cells: COS-7
Description: as §1

[3] = target: T3, human KDELR1 D50N/N54K (Homo sapiens, UniProt P24390, D50N/N54K); assay: ER retrieval assay, KDELR1 D50N/N54K-GFP
T3 construct: expressed in transfected cells; host or cells: COS-7
Description: as §1

[4] = target: T4, human KDELR1 E117N (Homo sapiens, UniProt P24390, E117N); assay: ER retrieval assay, KDELR1 E117N-GFP
T4 construct: expressed in transfected cells; host or cells: COS-7
Description: as §1

T2 sequence (P24390 whole entry N54R): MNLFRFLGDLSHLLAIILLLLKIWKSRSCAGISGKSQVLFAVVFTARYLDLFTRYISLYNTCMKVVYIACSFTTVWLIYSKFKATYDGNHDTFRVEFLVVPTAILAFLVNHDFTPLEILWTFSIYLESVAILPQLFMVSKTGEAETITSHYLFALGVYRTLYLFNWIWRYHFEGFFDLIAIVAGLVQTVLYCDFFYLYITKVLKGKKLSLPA
T1 sequence (P24390 whole entry N54K): as the sequence (P24390 whole entry N54R) above, with R54K counted along it
T3 sequence (P24390 whole entry D50N/N54K): as the sequence (P24390 whole entry N54R) above, with D50N, R54K counted along it
T4 sequence (P24390 whole entry E117N): as the sequence (P24390 whole entry N54R) above, with R54N, E117N counted along it

ligand-induced receptor retrieval to the ER (in words) [3]: gave a response
ligand-induced receptor retrieval to the ER (in words) [4]: move to the ER
Substance: ADEL [pcDNA3.1 hGHss-mScarlet-H. sapiens BiP639-654K651A (ADEL^SEC), secreted mScarlet fusion with human BiP C-terminus, ADEL signal]
ligand-induced receptor retrieval to the ER (in words) [1]: did not result in ADEL or DDEL recognition
ligand-induced receptor retrieval to the ER (in words) [2]: did not result in ADEL or DDEL recognition
